From US20240059703A1 (AMGEN INC., priority 2021, published 2024) come the findings set out here.

SMILES strings stand for the structures.

By IC50 is commonly meant the midpoint of a concentration-inhibition curve.

The target of the first assay is KRAS G12C (Homo sapiens (Human), UniProt P01116, C118A/G12C). Nature of the assay: 2 h coupled exchange assay. It counts as biochemical. The conditions noted are these: Avg 2 h Coupled exchange IC50, 2 h compound pre-incubation. The procedure: The term “2 h coupled exchange assay” or “20 h coupled exchange assay” as used herein refers to the assay described in the Section entitled “BIOLOGICAL EVALUATION.”
KRAS G12C, sequence (P01116 other isoform, or with tags, fused parts or gaps G12C/C118A): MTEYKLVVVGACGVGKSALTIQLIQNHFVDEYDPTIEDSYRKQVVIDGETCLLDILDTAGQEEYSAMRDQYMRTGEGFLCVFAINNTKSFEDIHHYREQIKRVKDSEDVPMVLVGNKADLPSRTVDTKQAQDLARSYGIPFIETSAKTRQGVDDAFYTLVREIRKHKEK
`C=CC(=O)N1CC2(CCN(c3nc4cc(-c5scnc5C)cnc4c(-c4ccccc4F)c3Cl)C2)C1` [Example 28-1, 1-(6-(3-chloro-4-(2-fluorophenyl)-7-(4-methylthiazol-5-yl)-1,5-naphthyridin-2-yl)-2,6-diazaspiro[3.4]octan-2-yl)prop-2-en-1-one] came in with an IC50 of 655 nM.

Consider `C=CC(=O)N1CC2(CCN(c3nc4c(c(-c5c(C)ccc6cn[nH]c56)c3C#N)C[C@H]3C[C@@H]4C3(C)C)C2)C1` (single isomer, unassigned) [Example 14-52], for which half-maximal inhibition (IC50) required 1020 nM.

On to `C=CC(=O)N1CC2(CCN(c3nc4c(c(-c5c(C)ccc6cnn(C)c56)c3F)C[C@H]3C[C@@H]4C3(C)C)C2)C1` (single isomer, unassigned) [Example 14-75], for which the IC50 came to 726 nM.

The compound `C=CC(=O)N1CC2(CCN(c3nc4c(c(-c5c(C)c(Cl)cc6cnn(C)c56)c3C)COC(C)(C)C4)C2)C1` (single isomer, unassigned) [Example 14-88, (M)-1-(6-(4-(5-chloro-1,6-dimethyl-1H-indazol-7-yl)-3,7,7-trimethyl-7,8-dihydro-5H-pyrano[4,3-b]pyridin-2-yl)-2,6-diazaspiro[3.4]octan-2-yl)-2-propen-1-one] displayed an IC50 of 10400 nM.

Take `C=CC(=O)N1CC2(CCN(c3nc4cc(-c5ccnn5C)ccc4c(-c4cc(O)c(F)cc4Cl)c3C)C2)C1` [Example 16-14, 1-(6-(4-(2-chloro-4-fluoro-5-hydroxyphenyl)-3-methyl-7-(1-methyl-1H-pyrazol-5-yl)-2-quinolinyl)-2,6-diazaspiro[3.4]octan-2-yl)-2-propen-1-one]: 373 nM corresponded to half-maximal inhibition (IC50).

Compound `C=CC(=O)N1CC2(CCN(c3nc4c(c(-c5cc(O)ccc5C)c3C)COC(C)(C)C4)C2)C1` [Example 14-30, 1-(6-(4-(5-hydroxy-2-methylphenyl)-3,7,7-trimethyl-7,8-dihydro-5H-pyrano[4,3-b]pyridin-2-yl)-2,6-diazaspiro[3.4]octan-2-yl)-2-propen-1-one] yielded an IC50 of 215 nM.

The assay is the same for the next values; noted with them: Avg 2 h Coupled exchange IC50, 2 h compound pre-incubation, SOS-mediated nucleotide exchange.
`C=CC(=O)N1CC2(CCN(c3nc4c(c(-c5cccc6cnn(C)c56)c3C#N)C[C@H]3C[C@@H]4C3(C)C)C2)C1` [Example 12-40, (1R,9R)-10,10-dimethyl-6-(1-methyl-1H-indazol-7-yl)-4-(2-(2-propenoyl)-2,6-diazaspiro[3.4]octan-6-yl)-3-azatricyclo[7.1.1.0^2,7] undeca-2,4,6-triene-5-carbonitrile] came in with an IC50 of 344 nM.

For `C=CC(=O)N1CC2(CCN(c3nc4ccccc4c(-c4c(C)ccc5[nH]ncc45)c3C3CC3)C2)C1` [Example 6, 1-(6-(3-cyclopropyl-4-(5-methyl-1H-indazol-4-yl)quinolin-2-yl)-2,6-diazaspiro[3.4]octan-2-yl)prop-2-en-1-one], it took 3500 nM to reach half-maximal inhibition (IC50).

As for `C=CC(=O)N1CC2(CCN(c3nc4c(c(-c5cnccc5C)c3C#N)C[C@H]3C[C@@H]4C3(C)C)C2)C1` [Example 13-109, (1R,9R)-10,10-dimethyl-6-(4-methyl-3-pyridinyl)-4-(2-(2-propenoyl)-2,6-diazaspiro[3.4]octan-6-yl)-3-azatricyclo[7.1.1.0^2,7]undeca-2,4,6-triene-5-carbonitrile], the IC50 was 1110 nM.

Take `C=CC(=O)N1CC2(CCN(c3nc4c(c(-c5c(C)ccc6cnn(C)c56)c3C#N)[C@H]3C[C@@H](C4)C3)C2)C1` [Example 13-131, (1S,9S)-3-(1,6-dimethyl-1H-indazol-7-yl)-5-(2-(2-propenoyl)-2,6-diazaspiro[3.4]octan-6-yl)-6-azatricyclo[7.1.1.0^2,7]undeca-2,4,6-triene-4-carbonitrile]: the IC50 came to 101 nM.

The compound `C=CC(=O)N1CC2(CCN(c3nc4c(c(-c5ccc(F)c6sc(N)nc56)c3C)CCC(C)(C)C4)C2)C1` (single isomer, unassigned) [Example 2-18] yielded an IC50 of 5240 nM.

`C=CC(=O)N1CC2(CCN(c3nc4c(c(-c5cccc6c(O)cccc56)c3C)COC(C)(C)C4)C2)C1` [Example 2-82, 1-(6-(4-(5-hydroxy-1-naphthalenyl)-3,7,7-trimethyl-7,8-dihydro-5H-pyrano[4,3-b]pyridin-2-yl)-2,6-diazaspiro[3,4]octan-2-yl)-2-propen-1-one] gave an IC50 of 641 nM.

In turn, `C=CC(=O)N1CC2(CCN(c3nc4c(c(-c5c(C)ccc6cnn(C)c56)c3C#N)COC4(C)C)C2)C1` (single isomer, unassigned) [Example 13-56, (P)-4-(1,6-dimethyl-1H-indazol-7-yl)-,7,7-dimethyl-2-(2-(2-propenoyl)-2,6-diazaspiro[3.4]octan-6-yl)-5,7-dihydrofuro[3,4-b]pyridine-3-carbonitrile] came in with an IC50 of 141000 nM.

In the case of `C=CC(=O)N1CC2(CCN(c3nc4c(c(-c5c(C)ccc6[nH]ncc56)c3Cl)COC(C)(C)C4)C2)C1` (single isomer, unassigned) [Example 2-84, (P)-1-(6-(3-chloro-7,7-dimethyl-4-(5-methyl-1H-indazol-4-yl)-7,8-dihydro-5H-pyrano[4,3-b]pyridin-2-yl)-2,6-diazaspiro[3.4]octan-2-yl)-2-propen-1-one], the IC50 was 808 nM.

In turn, `C=CC(=O)N1CC2(CCN(c3nc4c(c(-c5cnccc5C)c3C#N)C[C@H]3C[C@@H]4C3(C)C)C2)C1` (single isomer, unassigned) [Example 13-124] came in with an IC50 of 45500 nM.

With `C=CC(=O)N1CC2(CCN(c3nc4c(c(-c5cc(O)c(F)c6ccccc56)c3C#N)COC(C)(C)C4)C2)C1` (single isomer, unassigned) [Example 13-77, (M)-4-(4-fluoro-3-hydroxy-1-naphthalenyl)-7,7-dimethyl-2-(2-(2-propenoyl)-2,6-diazaspiro[3.4]octan-6-yl)-7,8-dihydro-5H-pyrano[4,3-b]pyridine-3-carbonitrile], the midpoint of inhibition, the IC50, lay at 35600 nM.

`C=CC(=O)N1CC2(CCN(c3nc4c(c(-c5cc(O)ccc5C)c3C#N)C3CCC4C3)C2)C1` [Example 2-37, (1R,8S)-6-(5-hydroxy-2-methylphenyl)-4-(2-(2-propenoyl)-2,6-diazaspiro[3.4]octan-6-yl)-3-azatricyclo[6.2.1.0^2,7]undeca-2,4,6-triene-5-carbonitrile|(1S, 8R)-6-(5-hydroxy-2-methylphenyl)-4-(2-(2-propenoyl)-2,6-diazaspiro[3,4]octan-6-yl)-3-azatricyclo[6.2.1.0^2.7]undeca-2,4,6-triene-5-carbonitrile] showed an IC50 of 298 nM.

In turn, `C=CC(=O)N1CC2(CCN(c3nc4c(c(-c5c(C)ccc6cnn(C)c56)c3C#N)CC(C)(C)C4)C2)C1` (single isomer, unassigned) [Example 13-17, (M)-4-(1,6-dimethyl-1H-indazol-7-yl)-6,6-dimethyl-2-(2-(2-propenoyl)-2,6-diazaspiro[3.4]octan-6-yl)-6,7-dihydro-5H-cyclopenta[b]pyridine-3-carbonitrile] had an IC50 of 19900 nM.

Still in this assay, the particulars now being: read-out: Avg 2 h Coupled exchange IC50, 2 h compound pre-incubation.
Turning to `C=CC(=O)N1CC2(CCN(c3nc4ccccc4c(-c4c(C)ccc5[nH]ncc45)c3C=C)C2)C1` (atropisomer, axis not shown; (M)) [Example 26-2, (M)-1-(6-(3-ethenyl-4-(5-methyl-1H-indazol-4-yl)-2-quinolinyl)-2,6-diazaspiro[3.4]octan-2-yl)-2-propen-1-one], the IC50 is 34600 nM.
